Assays:
Adrenergic, Alpha 1B = assay: Receptor binding assay: Adrenergic Alpha 1B; conditions: Test Compound @ 10 1 M
Adrenergic, Alpha 2B = assay: Receptor binding assay: Adrenergic Alpha 2B; conditions: Test Compound @ 10 1 M
[1] = target: Adrenergic, Alpha 2C (hr) (Homo sapiens, UniProt P18825); assay: Receptor binding assay: Adrenergic Alpha 2C; conditions: Test Compound @ 10 1 M
Adrenergic, Beta 2 (hr) = Adrenergic, Beta 2 (hr) (Homo sapiens, UniProt P07550); assay: Receptor binding assay: Adrenergic Beta 2; conditions: Test Compound @ 10 1 M
Sequence of Adrenergic, Beta 2 (hr) (P07550 whole entry): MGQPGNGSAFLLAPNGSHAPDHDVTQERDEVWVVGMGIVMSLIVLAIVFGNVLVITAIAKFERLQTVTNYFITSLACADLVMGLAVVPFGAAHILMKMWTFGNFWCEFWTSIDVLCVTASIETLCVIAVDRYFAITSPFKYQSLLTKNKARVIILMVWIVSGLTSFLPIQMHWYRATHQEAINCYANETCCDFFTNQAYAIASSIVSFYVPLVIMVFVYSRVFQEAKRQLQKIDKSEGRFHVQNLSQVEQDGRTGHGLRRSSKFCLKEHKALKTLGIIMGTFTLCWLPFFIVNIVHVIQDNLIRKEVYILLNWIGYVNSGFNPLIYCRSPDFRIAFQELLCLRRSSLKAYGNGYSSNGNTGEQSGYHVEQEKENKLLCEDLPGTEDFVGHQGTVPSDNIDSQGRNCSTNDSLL

Cannabinoid, CB1 (hr) = Cannabinoid, CB1 (hr) (Homo sapiens, UniProt P21554); assay: Receptor binding assay: Cannabinoid CB1; conditions: Test Compound @ 10 1 M
Sequence of Cannabinoid, CB1 (hr) (P21554 whole entry): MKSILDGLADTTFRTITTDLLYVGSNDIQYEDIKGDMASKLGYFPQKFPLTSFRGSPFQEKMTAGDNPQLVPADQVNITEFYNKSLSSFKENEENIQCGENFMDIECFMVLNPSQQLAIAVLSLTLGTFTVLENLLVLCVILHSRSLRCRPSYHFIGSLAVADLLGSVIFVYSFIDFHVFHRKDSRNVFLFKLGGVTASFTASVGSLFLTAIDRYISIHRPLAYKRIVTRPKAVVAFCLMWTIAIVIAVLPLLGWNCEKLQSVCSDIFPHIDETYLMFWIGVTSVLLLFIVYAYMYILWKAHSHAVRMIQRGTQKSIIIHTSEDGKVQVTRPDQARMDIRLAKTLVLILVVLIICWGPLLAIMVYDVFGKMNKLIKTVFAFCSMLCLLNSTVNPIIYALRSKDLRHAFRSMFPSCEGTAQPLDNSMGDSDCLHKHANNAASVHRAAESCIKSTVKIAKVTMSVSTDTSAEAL

Cannabinoid, CB2 (hr) = Cannabinoid, CB2 (hr) (Homo sapiens, UniProt P34972); assay: Receptor binding assay: Cannabinoid CB2; conditions: Test Compound @ 10 1 M
Sequence of Cannabinoid, CB2 (hr) (P34972 whole entry): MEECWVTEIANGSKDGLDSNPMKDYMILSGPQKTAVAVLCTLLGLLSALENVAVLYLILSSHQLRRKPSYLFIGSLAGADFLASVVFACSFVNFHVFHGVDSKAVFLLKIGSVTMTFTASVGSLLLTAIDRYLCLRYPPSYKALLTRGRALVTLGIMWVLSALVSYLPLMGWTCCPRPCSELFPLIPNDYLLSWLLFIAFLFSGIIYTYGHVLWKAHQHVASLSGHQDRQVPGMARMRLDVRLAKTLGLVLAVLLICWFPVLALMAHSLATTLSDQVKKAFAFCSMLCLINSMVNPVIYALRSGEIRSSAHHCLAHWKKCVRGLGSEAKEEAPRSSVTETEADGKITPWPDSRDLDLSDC

Dopamine Transporter = assay: Dopamine transporter binding assay; conditions: Test Compound @ 10 1 M
Dopamine, D2s (hr) = Dopamine, D2s (hr) (Homo sapiens, UniProt P14416); assay: Receptor binding assay: Dopamine D2s; conditions: Test Compound @ 10 1 M
Sequence of Dopamine, D2s (hr) (P14416 1-414 isoform P14416-2): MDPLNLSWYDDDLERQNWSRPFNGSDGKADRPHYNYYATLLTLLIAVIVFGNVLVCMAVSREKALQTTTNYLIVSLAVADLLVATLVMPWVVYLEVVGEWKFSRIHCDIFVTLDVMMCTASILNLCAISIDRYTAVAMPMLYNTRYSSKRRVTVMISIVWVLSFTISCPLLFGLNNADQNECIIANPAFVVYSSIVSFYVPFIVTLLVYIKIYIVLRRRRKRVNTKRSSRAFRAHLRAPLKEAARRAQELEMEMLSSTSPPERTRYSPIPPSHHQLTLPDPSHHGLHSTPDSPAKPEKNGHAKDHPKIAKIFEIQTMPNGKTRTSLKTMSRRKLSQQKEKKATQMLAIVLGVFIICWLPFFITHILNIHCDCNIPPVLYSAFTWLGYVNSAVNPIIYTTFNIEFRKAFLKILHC

Dopamine, D4.4 (hr) = Dopamine, D4.4 (hr) (Homo sapiens, UniProt P21917); assay: Receptor binding assay: Dopamine D4.4; conditions: Test Compound @ 10 1 M
Sequence of Dopamine, D4.4 (hr) (P21917 whole entry): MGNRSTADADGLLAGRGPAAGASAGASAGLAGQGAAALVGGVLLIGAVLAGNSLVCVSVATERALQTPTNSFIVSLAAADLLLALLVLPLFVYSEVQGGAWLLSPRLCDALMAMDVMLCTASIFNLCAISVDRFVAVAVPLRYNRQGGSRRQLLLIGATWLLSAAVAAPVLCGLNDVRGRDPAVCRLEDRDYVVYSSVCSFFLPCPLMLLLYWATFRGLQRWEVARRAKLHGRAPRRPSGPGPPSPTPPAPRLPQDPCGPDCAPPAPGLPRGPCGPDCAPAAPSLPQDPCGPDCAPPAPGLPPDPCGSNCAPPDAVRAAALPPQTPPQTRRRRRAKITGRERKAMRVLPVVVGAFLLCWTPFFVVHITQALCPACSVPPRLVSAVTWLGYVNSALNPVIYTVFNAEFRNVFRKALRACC

Glutamate, NMDA Glycine = assay: Receptor binding assay: Glutamate NMDA Glycine; conditions: Test Compound @ 10 1 M
Imidazoline, I1 = assay: Imidazoline binding assay: I1; conditions: Test Compound @ 10 1 M
Muscarinic, M1 (hr) = target: T1, Muscarinic, M1 (hr) (Homo sapiens, UniProt P11229); assay: Receptor binding assay: Muscarinic M1; conditions: Test Compound @ 10 1 M
T1 construct: Novascreen (contract assay)
T1 sequence (P11229 whole entry): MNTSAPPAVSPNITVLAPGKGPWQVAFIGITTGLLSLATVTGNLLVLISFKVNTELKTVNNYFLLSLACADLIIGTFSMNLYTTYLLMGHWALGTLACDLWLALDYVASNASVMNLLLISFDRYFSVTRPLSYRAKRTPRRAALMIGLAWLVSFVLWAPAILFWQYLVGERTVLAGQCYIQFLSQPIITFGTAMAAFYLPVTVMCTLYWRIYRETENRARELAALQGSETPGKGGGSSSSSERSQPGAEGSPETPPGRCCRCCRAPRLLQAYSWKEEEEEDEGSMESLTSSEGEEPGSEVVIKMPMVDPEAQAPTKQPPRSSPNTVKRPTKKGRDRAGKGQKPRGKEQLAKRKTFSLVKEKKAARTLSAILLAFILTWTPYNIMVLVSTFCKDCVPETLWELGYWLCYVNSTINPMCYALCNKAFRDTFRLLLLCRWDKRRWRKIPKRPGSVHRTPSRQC

Muscarinic, M3 (hr) = target: T2, Muscarinic, M3 (hr) (Homo sapiens, UniProt P20309); assay: Receptor binding assay: Muscarinic M3; conditions: Test Compound @ 10 1 M
T2 construct: Novascreen (contract assay)

Muscarinic, M4 (hr) = target: T3, Muscarinic, M4 (hr) (Homo sapiens, UniProt P08173); assay: Receptor binding assay: Muscarinic M4; conditions: Test Compound @ 10 1 M
T3 construct: Novascreen (contract assay)
T3 sequence (P08173 whole entry): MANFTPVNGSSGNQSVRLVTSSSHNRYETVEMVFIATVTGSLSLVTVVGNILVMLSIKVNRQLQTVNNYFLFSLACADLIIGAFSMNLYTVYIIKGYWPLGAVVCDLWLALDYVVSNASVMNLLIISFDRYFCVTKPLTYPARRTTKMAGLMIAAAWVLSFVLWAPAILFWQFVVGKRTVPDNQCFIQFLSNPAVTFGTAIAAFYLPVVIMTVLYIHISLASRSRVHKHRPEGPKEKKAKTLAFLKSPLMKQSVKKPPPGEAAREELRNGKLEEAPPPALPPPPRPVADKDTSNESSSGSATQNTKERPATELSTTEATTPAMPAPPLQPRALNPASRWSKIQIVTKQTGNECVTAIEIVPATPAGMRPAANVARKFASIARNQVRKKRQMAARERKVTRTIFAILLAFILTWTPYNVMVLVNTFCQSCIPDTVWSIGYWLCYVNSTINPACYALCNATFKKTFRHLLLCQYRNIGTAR

Muscarinic, MS (hr) = target: T4, Muscarinic, MS (hr) (Homo sapiens, UniProt P08912); assay: Receptor binding assay: Muscarinic MS; conditions: Test Compound @ 10 1 M
T4 construct: Novascreen (contract assay)
T4 sequence (P08912 whole entry): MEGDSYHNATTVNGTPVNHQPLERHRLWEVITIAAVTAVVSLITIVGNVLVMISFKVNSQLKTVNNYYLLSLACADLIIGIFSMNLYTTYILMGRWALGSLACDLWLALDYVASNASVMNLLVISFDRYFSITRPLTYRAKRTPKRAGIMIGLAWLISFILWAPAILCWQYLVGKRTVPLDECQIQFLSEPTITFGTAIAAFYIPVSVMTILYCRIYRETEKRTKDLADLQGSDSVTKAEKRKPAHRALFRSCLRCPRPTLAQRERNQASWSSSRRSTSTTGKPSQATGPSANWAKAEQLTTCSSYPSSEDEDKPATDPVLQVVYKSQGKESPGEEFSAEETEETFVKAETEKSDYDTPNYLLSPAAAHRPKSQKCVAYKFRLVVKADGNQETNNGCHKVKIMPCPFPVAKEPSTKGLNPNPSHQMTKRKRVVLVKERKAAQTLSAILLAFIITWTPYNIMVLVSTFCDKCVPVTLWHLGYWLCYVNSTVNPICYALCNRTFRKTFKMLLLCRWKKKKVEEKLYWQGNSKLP

Oxidase, MAO-A, Central [2] = target: T5, Oxidase, MAO-A, Central (Rattus norvegicus, UniProt P21396); assay: Receptor binding assay: Oxidase MAO-A central (first line); conditions: Test Compound @ 10 1 M
T5 construct: Novascreen (contract assay)
T5 sequence (P21396 whole entry): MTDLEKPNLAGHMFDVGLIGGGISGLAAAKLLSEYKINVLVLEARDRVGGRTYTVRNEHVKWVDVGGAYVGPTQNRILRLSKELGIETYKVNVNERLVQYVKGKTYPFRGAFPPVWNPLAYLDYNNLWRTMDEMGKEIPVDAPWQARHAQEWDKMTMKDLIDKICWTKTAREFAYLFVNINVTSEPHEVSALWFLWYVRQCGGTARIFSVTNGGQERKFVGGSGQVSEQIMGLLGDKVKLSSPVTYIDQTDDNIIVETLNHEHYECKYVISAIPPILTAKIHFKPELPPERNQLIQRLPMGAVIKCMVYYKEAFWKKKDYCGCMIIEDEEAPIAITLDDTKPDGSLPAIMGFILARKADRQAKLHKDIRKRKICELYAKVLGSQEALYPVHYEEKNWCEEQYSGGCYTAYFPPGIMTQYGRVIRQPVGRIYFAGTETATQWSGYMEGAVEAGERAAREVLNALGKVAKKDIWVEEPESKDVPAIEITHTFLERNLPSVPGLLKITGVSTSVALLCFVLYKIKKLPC

Oxidase, MAO-A, Central [3] = assay: Receptor binding assay: Oxidase MAO-A central (second line); conditions: Test Compound @ 10 1 M
[4] = tested on: Serotonin, 5HT1, non-selective; assay: Receptor binding assay: Serotonin 5HT1 non-selective; conditions: Test Compound @ 10 1 M
Serotonin, 5HT1D (h) = target: T6, Serotonin, 5HT1D (h) (Homo sapiens, UniProt P28221); assay: Receptor binding assay: Serotonin 5HT1D; conditions: Test Compound @ 10 1 M
T6 construct: Novascreen (contract assay)
T6 sequence (P28221 whole entry): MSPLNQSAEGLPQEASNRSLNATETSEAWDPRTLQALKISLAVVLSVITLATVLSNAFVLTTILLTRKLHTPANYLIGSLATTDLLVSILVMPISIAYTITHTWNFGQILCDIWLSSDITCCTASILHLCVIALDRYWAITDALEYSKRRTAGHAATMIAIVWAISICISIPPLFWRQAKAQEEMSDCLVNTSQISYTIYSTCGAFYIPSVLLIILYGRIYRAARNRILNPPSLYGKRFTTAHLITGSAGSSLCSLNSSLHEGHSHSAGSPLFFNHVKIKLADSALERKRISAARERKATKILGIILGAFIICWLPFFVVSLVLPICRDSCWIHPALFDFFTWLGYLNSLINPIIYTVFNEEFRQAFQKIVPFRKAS

Serotonin, 5HT4 = assay: Receptor binding assay: Serotonin 5HT4; conditions: Test Compound @ 10 1 M
Serotonin, 5HT5A (hr) = target: T7, Serotonin, 5HT5A (hr) (Homo sapiens, UniProt P47898); assay: Receptor binding assay: Serotonin 5HT5A; conditions: Test Compound @ 10 1 M
T7 construct: Novascreen (contract assay)

Sigma 2 = assay: Receptor binding assay: Sigma 2; conditions: Test Compound @ 10 1 M
[5] = In vitro metabolism in hepatic microsomes, dog; format: in vitro ADME; conditions: male dogs, read-out: t1/2 in hepatic microsomes
Experimental: (§1) In vitro metabolism of 1-[2-dimethylamino-1-(4-phenol)ethyl]-cis-1,4-cyclohexandiol was conducted in the hepatic microsomes of Sprague-Dawley rats, male dogs, male monkeys and mixed male and female humans to characterize metabolic stability and identification of metabolites. 1-[2-dimethylamino-1-(4-phenol)ethyl]-cis-1,4-cyclohexandiol was stable (t1/2>60 minutes) in hepatic microsomes indicating Phase I and II metabolism was minimal in all species.

[6] = In vitro metabolism in hepatic microsomes, monkey; format: in vitro ADME; conditions: male monkeys, read-out: t1/2 in hepatic microsomes
Experimental: as §1

[7] = tested on: spinal nerve ligation model of neuropathic pain, mechanical hyperalgesia; assay: Spinal nerve ligation model of neuropathic pain, mechanical hyperalgesia; format: in vivo; conditions: rat
Experimental: 1-[2-dimethylamino-1-(4-phenol)ethyl]-cis-1,4-cyclohexandiol was dissolved in sterile saline and administered orally (p.o.) at dosages of 10 mg/kg, 30 mg/kg and 100 mg/kg. Gabapentin was purchased from Toronto Research Chemicals (Ontario, Canada) and suspended in 2% Tween 80 in 0.5% methylcellulose and administered intraperitoneally (i.p.).
For the visceral pain study male CD-1 mice (20-25 g, Charles River; Kingston/Stoneridge, NY) were housed in groups of 5/cage on bedding and for the neuropathic study male Sprague-Dawley rats (125-150 g, Harlan; Indianapolis, Ind.) were housed 3/cage on bedding. For all studies animals were maintained in climate-controlled rooms on a 12-hour light/dark cycle (lights on at 0630) with food and water available ad libitum.
Surgical procedures were performed under 4% isoflurane/O2 anesthesia, delivered via nose cone and maintained at 2.5% for the duration of the surgery. After induction of anesthesia, the incision site was shaved and prepared in a sterile manner. […]
For the neuropathic model statistical significance was determined using a repeated measure ANOVA using a customized SAS-excel application (SAS Institute, Cary, N.C.). Significant main effects were analyzed further by subsequent least significant difference analysis. […]
Assessment of mechanical hyperalgesia thresholds were measured as the hind paw withdrawal threshold to a noxious mechanical stimulus and was determined using the paw pressure technique [Randall, L. O. and Selitto, J. J., A method for measurement of analgesic activity on inflamed tissue, Arch. […] Thresholds were evaluated prior to surgery and reassessed three weeks after SNL surgery. On test day, rats were administered vehicle or test compound mechanical thresholds assessed 1, 3, 5 and 24 hr after administration (n=10/group).

Sequence of Adrenergic, Alpha 2C (hr) (P18825 whole entry): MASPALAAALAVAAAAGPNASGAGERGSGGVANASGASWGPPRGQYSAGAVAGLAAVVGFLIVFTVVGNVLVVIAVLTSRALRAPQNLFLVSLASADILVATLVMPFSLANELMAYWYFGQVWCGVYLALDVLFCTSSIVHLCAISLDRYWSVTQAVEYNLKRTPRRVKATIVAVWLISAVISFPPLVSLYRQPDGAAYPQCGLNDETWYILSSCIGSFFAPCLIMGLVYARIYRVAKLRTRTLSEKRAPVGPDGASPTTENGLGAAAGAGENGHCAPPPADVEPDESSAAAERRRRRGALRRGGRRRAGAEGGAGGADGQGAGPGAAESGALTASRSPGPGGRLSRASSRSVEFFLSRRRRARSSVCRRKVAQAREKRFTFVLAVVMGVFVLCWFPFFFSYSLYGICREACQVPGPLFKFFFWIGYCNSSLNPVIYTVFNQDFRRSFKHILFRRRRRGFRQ

Structure (SMILES): CN(C)CC(c1ccc(O)cc1)C1(O)CCC(O)CC1 (stereo not drawn) [1-[2-dimethylamino-1-(4-phenol)ethyl]-cis-1,4-cyclohexandiol]
- Receptor Binding % Inhibition (Adrenergic, Alpha 1B): 11.27%
- Receptor Binding % Inhibition (Adrenergic, Alpha 2B): 8.60%
- inhibition at 10 µM [1]: 3.06%
- inhibition at 10 µM (Adrenergic, Beta 2 (hr)): -2.46%
- inhibition at 10 µM (Cannabinoid, CB1 (hr)): 8.11%
- inhibition at 10 µM (Cannabinoid, CB2 (hr)): 15.7%
- Receptor Binding % Inhibition (Dopamine Transporter): 8.49%
- inhibition at 10 µM (Dopamine, D2s (hr)): 6.17%
- inhibition at 10 µM (Dopamine, D4.4 (hr)): 3.39%
- Receptor Binding % Inhibition (Glutamate, NMDA Glycine): 2.24%
- Receptor Binding % Inhibition (Imidazoline, I1): 17.43%
- inhibition at 10 µM (Muscarinic, M1 (hr)): -5.96%
- inhibition at 10 µM (Muscarinic, M3 (hr)): 0.11%
- inhibition at 10 µM (Muscarinic, M4 (hr)): -3.52%
- inhibition at 10 µM (Muscarinic, MS (hr)): 5.4%
- inhibition at 10 µM (Oxidase, MAO-A, Central [2]): -0.11%
- Receptor Binding % Inhibition (Oxidase, MAO-A, Central [3]): 2.43%
- Receptor Binding % Inhibition [4]: 5.09%
- inhibition at 10 µM (Serotonin, 5HT1D (h)): 7.26%
- Receptor Binding % Inhibition (Serotonin, 5HT4): 3.98%
- inhibition at 10 µM (Serotonin, 5HT5A (hr)): 19.9%
- Receptor Binding % Inhibition (Sigma 2): 1.00%
- half-life [5]: > 1 h
- half-life [6]: > 1 h
- effect versus the SNL/vehicle ([7]; 10 and 30 mg/kg): positive trend
- MED, reversal of mechanical hyperalgesia ([7]; spinal nerve ligation, p.o.): 10 mg/kg
- reversal of mechanical hyperalgesia ([7]; spinal nerve ligation, p.o.): statistically significant reversal

From patent US20070015828A1 (Wyeth, priority 2005, published 2007)
